Laboratory results reported in US12590062B2, “PD-1/PD-L1 inhibitors” (Gilead Sciences, Inc., priority 2017, dated 2026).

Columns and labels:
[1] = molecular target: PD-1/PD-L1 (Homo sapiens, UniProt Q9NZQ7); assay: PD-1/PD-L1 biochemical protein-protein interaction assay (ALPHA); format: binding; conditions: 0.3 nM His tagged PD-L1, 2.5 nM biotinylated Fc-PD-1, 60 minutes at 25° C., read-out: IC50 PD-L1-PD-1 Alpha IC50-mono PD-L1-fcP-D1
Procedure, shortened: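 IC50 values derive from four-parameter fits of ALPHA signal decrease. Assay: 0.3 nM His-tagged PD-L1 with 2.5 nM biotinylated Fc-PD-1, Hepes pH 7.4 with 0.005% Tween 20 and 0.01% BSA, 60 min at 25° C, then anti-His acceptor and streptavidin donor beads.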

[2] = molecular target: T1, PD-L1 (Homo sapiens, UniProt Q9NZQ7); assay: PD-L1/PD-L1 dimerization biochemical protein-protein interaction assay (ALPHA); format: binding; conditions: compound-induced PD-L1 dimerization, head prints '1 nM' (0.5 nM His-tagged PD-L1 and 0.5 nM FLAG-tagged PD-L1), read-out: AC50 PDL1 Dimer Alpha 1 nM
T1 construct: determine if they can specifically dimerize the extracellular domains of PD-L1
T1 sequence (Q9NZQ7 19-238 limits assumed): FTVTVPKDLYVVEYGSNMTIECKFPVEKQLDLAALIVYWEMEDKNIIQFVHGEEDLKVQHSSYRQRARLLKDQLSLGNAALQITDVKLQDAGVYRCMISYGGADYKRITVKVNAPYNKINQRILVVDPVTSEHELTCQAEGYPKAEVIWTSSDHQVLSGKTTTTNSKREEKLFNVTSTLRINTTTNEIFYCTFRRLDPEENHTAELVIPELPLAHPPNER
T1 sequence (Q9NZQ7 19-238 limits assumed): as above
Procedure, shortened: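 After 2 h at 25 °C with compound, His- and FLAG-tagged PD-L1 ECDs (each 0.5 nM final; 25 mM Hepes pH 7.4, 150 mM NaCl) were detected by sequential anti-His acceptor and anti-FLAG donor bead incubations. Dose-response curves fitted to four-parameter equation for AC50.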

[3] = molecular target: T2, PD-1/PD-L1 interaction (Homo sapiens, UniProt Q9NZQ7); assay: PD-1/PD-L1 NFAT reporter co-culture assay; format: cell-based; conditions: Jurkat PD-1 NFAT-luciferase cells co-cultured with aAPC-PD-L1 CHO cells, 6 hrs at 37° C.; read-out: EC50 NFAT Luciferase
T2 construct: expressed in transfected cells; host or cells: CHO cells (aAPC-PD-L1) co-cultured with Jurkat cells overexpressing PD-1 and an NFAT-luciferase reporter
T2 sequence (Q9NZQ7 19-290): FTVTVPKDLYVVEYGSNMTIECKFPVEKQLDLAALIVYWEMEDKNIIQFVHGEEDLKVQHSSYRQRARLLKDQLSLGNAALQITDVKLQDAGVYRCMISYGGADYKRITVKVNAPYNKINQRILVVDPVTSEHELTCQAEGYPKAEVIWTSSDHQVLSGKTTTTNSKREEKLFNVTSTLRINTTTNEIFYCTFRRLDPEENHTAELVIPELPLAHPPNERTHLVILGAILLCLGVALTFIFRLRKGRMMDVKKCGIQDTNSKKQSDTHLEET
Procedure, shortened: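 Jurkat cells overexpressing PD-1 with NFAT-driven luciferase were mixed with compound in RPMI 1640/2% FBS and seeded onto overnight-plated CHO aAPC-PD-L1 cells expressing surface anti-CD3 and PD-L1. Co-culture ran 6 h at 37 °C; luminescence read with ONE-Glo; EC50 from four-parameter fit.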

Chain of PD-1/PD-L1 (Q9NZQ7 19-238 limits assumed): as the sequence (Q9NZQ7 19-238 limits assumed) above

| SMILES | IC50 [1] | AC50 [2] | EC50 [3] |
| --- | --- | --- | --- |
| Cc1c(COc2cc(OCc3cncc(C#N)c3)c(CNC[C@@H](O)CC(=O)O)cc2Cl)cccc1-c1cccc(-c2ccc3c(CNC[C@@H](O)CC(=O)O)ccc(Cl)c3c2)c1C [Example 359, (S)-4-(((6-(3′-((4-((((S)-3-carboxy-2-hydroxypropyl)amino)methyl)-2-chloro-5-((5-cyanopyridin-3-yl)methoxy)phenoxy)methyl)-2,2′-dimethyl-[1,1′-biphenyl]-3-yl)-4-chloronaphthalen-1-yl)methyl)amino)-3-hydroxybutanoic acid] | 2.11 nM | 540 nM | 216 nM |
| COc1nc(O[C@H]2CCc3c(-c4cccc(-c5ccc(CNC[C@@H]6CCC(=O)N6)cc5)c4Cl)cccc32)c(Cl)cc1CNC[C@@H](O)CC(=O)O [Example 732] | 0.074 nM | 2.69 nM | 14 nM |
| Cc1c(COc2cc(OCc3cncc(C#N)c3)c(CNC[C@@H](O)CC(=O)O)cc2Cl)cccc1-c1cccc(-c2cnc3c(CNC[C@@H](O)CC(=O)O)cccc3c2)c1C [Example 452] | 0.076 nM | 144 nM | 253 nM |
| CC(C)(NCc1cc(Br)c(OCc2cccc(-c3cccc(-c4ccc5c(c4)C[C@@H](N)C5)c3Cl)c2Cl)nc1OCc1cncc(C#N)c1)C(=O)O [Example 551] | 0.064 nM | 12.4 nM | 100 nM |
| COc1nc(O[C@H]2CCc3c(-c4cccc(-c5cnc(CN6CC(C)(O)C6)c(OC)n5)c4Cl)cccc32)c(Cl)cc1CN1CC[C@H](C(=O)O)C1 [Example 705] | 0.064 nM | 60.6 nM | 20 nM |
| COc1nc(-c2cccc(-c3cccc(-c4ccc5ncc(CNC[C@@H]6CCC(=O)N6)n5c4)c3Cl)c2Cl)ccc1CNC[C@@H]1CCC(=O)N1 [Example 622] | 0.567 nM | ≥ 10000 nM | ≥ 50000 nM |
| Cc1c(COc2cc(OCc3cncc(C#N)c3)c(CNC[C@@H](O)CC(=O)O)cc2Cl)cccc1-c1cccc(-c2ccc3c(CCNC[C@@H](O)CC(=O)O)coc3c2)c1C [Example 348, (S)-4-((4-((3′-(3-(2-(((S)-3-carboxy-2-hydroxypropyl)amino)ethyl)benzofuran-6-yl)-2,2′-dimethyl-[1,1′-biphenyl]-3-yl)methoxy)-5-chloro-2-((5-cyanopyridin-3-yl)methoxy)benzyl)amino)-3-hydroxybutanoic acid] | 0.122 nM | 80.4 nM | 381 nM |
| COc1nc(O[C@H]2CCc3c(-c4cccc(-c5cc(C)c(CNC[C@@H]6CCC(=O)N6)c(OC)n5)c4Cl)cccc32)c(Cl)cc1CNC[C@@H]1CCC(=O)N1 [Example 591] | 0.064 nM | 22.7 nM | 20 nM |
| Cc1c(COc2cc(OCc3cncc(C#N)c3)c(CNCC3(O)CC3)cc2Cl)cccc1-c1cccc(-c2ccc(OCCNCCO)cc2)c1C [Example 391, 5-((4-chloro-2-((((1-hydroxycyclopropyl)methyl)amino)methyl)-5-((4″-(2-((2-hydroxyethyl)amino)ethoxy)-2,2′-dimethyl-[1,1′:3′,1″-terphenyl]-3-yl)methoxy)phenoxy)methyl)nicotinonitrile] | 1.42 nM | 243 nM | 305 nM |
| COc1nc(-c2cccc(-c3cccc4c3CC[C@@H]4Oc3nc(OCc4cncc(C#N)c4)c(CN[C@@](C)(CO)C(=O)O)cc3Cl)c2Cl)ccc1C1=NCCN1 [Example 745] | 0.064 nM | 19.2 nM | 113 nM |
| Cc1c(COc2cc(OCc3cncc(C#N)c3)c(CN[C@@](C)(CO)C(=O)O)cc2Cl)cccc1-c1cccc(-c2ccc(C3CCCN3CCO)cc2)c1C (stereo partly drawn) [Example 374, (2S)-2-((5-chloro-2-((5-cyanopyridin-3-yl)methoxy)-4-((4″-(1-(2-hydroxyethyl)pyrrolidin-2-yl)-2,2′-dimethyl-[1,1′:3′,1″-terphenyl]-3-yl)methoxy)benzyl)amino)-3-hydroxy-2-methylpropanoic acid] | 0.136 nM | 165 nM | 788 nM |
| COc1nc(-c2cccc(-c3cccc4c3CC[C@@H]4Oc3ccc(CN[C@@](C)(CO)C(=O)O)c(OCc4cncc(C#N)c4)n3)c2Cl)ccc1C1=NCCN1 [Example 746] | 0.064 nM | 104 nM | 143 nM |
| COc1nc(O[C@H]2CCc3c(-c4cccc(-c5ccc(C6=NCCN6)c(OC)n5)c4Cl)cccc32)c(Br)cc1CNC[C@@H]1CCC(=O)N1 [Example 779] | 0.353 nM | 113 nM | 68 nM |
| Cc1c(COc2cc(OCc3cncc(C#N)c3)c(CN[C@@](C)(CO)C(=O)O)cc2Cl)cccc1-c1cccc(-c2ccc(C3=NCCN3)cc2)c1C [Example 503] | 0.064 nM | 42.1 nM | 81 nM |
| Cc1c(COc2cc(OCc3cncc(C#N)c3)c(CN[C@@](C)(CO)C(=O)O)cc2Cl)cccc1-c1cccc(-c2ccc(OCCN3CCC4(CC3)CC(=O)N4)cc2)c1C [Example 441] | 0.212 nM | 301 nM | 260 nM |
| COc1nc(O[C@H]2CCc3c(-c4cccc(-c5ccc(C6=N[C@@H](C)CN6)c(OC)n5)c4Cl)cccc32)c(Br)cc1CN1CC[C@H](O)[C@H](F)C1 [Example 774] | 1.31 nM | 2730 nM | 463 nM |
| COc1nc(-c2cccc(-c3cccc4c3CC[C@@H]4Oc3nc(OCC#N)c(CNC[C@@H]4CCC(=O)N4)cc3Cl)c2Cl)ccc1CNC[C@@H]1CCC(=O)N1 [Example 658] | 0.221 nM | 78.5 nM | 51 nM |
| CS(=O)(=O)c1cncc(COc2nc(OCc3cccc(-c4cccc(-c5ccc6c(c5)C[C@@H](N)C6)c4Cl)c3Cl)c(Br)cc2CNC[C@@H](O)CC(=O)O)c1 [Example 546] | 0.515 nM | 39.2 nM | 109 nM |
| CCOC(=O)[C@@H]1CCCCN1Cc1cc(Br)c(O[C@H]2CCc3c(-c4cccc(-c5ccc(C6=NCCN6)c(OC)n5)c4Cl)cccc32)nc1OC [Example 776] | 8.31 nM | ≥ 10000 nM | 1440 nM |
| COc1nc(-c2cccc(-c3cccc(NC(=O)c4ccc(C5=NCCN5)cn4)c3C)c2Cl)ccc1C1=NCCN1 [Example 434] | 0.077 nM | 106 nM | 332 nM |
| CS(=O)(=O)c1cncc(COc2nc(O[C@H]3CCc4c(-c5cccc(-c6ccc(CN)cc6)c5Cl)cccc43)c(Cl)cc2CNC[C@@H](O)CC(=O)O)c1 [Example 659] | 0.064 nM | 22.1 nM | 51 nM |
| C[C@@](CO)(NCc1cc(Br)c(OCc2cccc(-c3cccc(-c4ccc5c(c4)C[C@@H](N)C5)c3Cl)c2Cl)nc1OCc1cncc(S(C)(=O)=O)c1)C(=O)O [Example 550] | 0.134 nM | 47.7 nM | 163 nM |
| N#Cc1cncc(COc2nc(OCc3cccc(-c4cccc(-c5ccc(CNC[C@@H]6CCC(=O)N6)cc5)c4Cl)c3Cl)c(Br)cc2CNC[C@@H]2CCC(=O)N2)c1 [Example 540] | 0.593 nM | 126 nM | 103 nM |
| COc1nc(-c2cccc(-c3cccc(N4Cc5cc(CNC[C@@H]6CCC(=O)N6)ccc5C4=O)c3Cl)c2Cl)ccc1CNC[C@@H]1CCC(=O)N1 [Example 632] | 0.147 nM | 314 nM | 2980 nM |
| COc1nc(O[C@H]2CCc3c(-c4cccc(-c5ccc(CNC[C@@H]6CCC(=O)N6)c(OC(F)F)c5)c4Cl)cccc32)c(Cl)cc1CNC[C@@H]1CCC(=O)N1 [Example 657] | 0.795 nM | 156 nM | 197 nM |
| COc1nc(-c2cccc(-c3cccc(-c4nc5ccc(CNC[C@@H]6CCC(=O)N6)cn5n4)c3Cl)c2Cl)ccc1CNC[C@@H]1CCC(=O)N1 [Example 633] | 1.26 nM | 2840 nM | 2280 nM |
| COc1nc(O[C@H]2CCc3c(-c4cccc(-c5ccc(CNC[C@@H]6CCC(=O)N6)cc5)c4Cl)cccc32)c(Cl)cc1CN1CC[C@H](C(=O)O)C1 [Example 723] | 0.064 nM | 35.1 nM | 41 nM |
| Cc1c(COc2cc(OCc3cncc(C#N)c3)c(CN[C@@](C)(CO)C(=O)O)cc2Cl)cccc1-c1cccc(-c2ccc3c(c2)CC(N)C3)c1C (stereo partly drawn) [Example 343, (S)-2-((4-((3′-((R)-2-amino-2,3-dihydro-1H-inden-5-yl)-2,2′-dimethyl-[1,1′-biphenyl]-3-yl)methoxy)-5-chloro-2-((5-cyanopyridin-3-yl)methoxy)benzyl)amino)-3-hydroxy-2-methylpropanoic acid and(S)-2-((4-((3′-((S)-2-amino-2,3-dihydro-1H-inden-5-yl)-2,2′-dimethyl-[1,1′-biphenyl]-3-yl)methoxy)-5-chloro-2-((5-cyanopyridin-3-yl)methoxy)benzyl)amino)-3-hydroxy-2-methylpropanoic acid] | 0.218 nM | 81.1 nM | 158 nM |
| COc1nc(-c2cccc(-c3cccc4c3CC[C@@H]4Oc3nc(OCc4cncc(C#N)c4)c(CN[C@@](C)(CO)C(=O)O)cc3Cl)c2Cl)ccc1CN1CC2(C1)CN(C(=O)OC(C)(C)C)C2 [Example 682] | 0.421 nM | 194 nM | 243 nM |
